Data: patent publication US6509328B1, “Glutamate receptor antagonists” (Hoffmann-La Roche Inc., priority 1999, dated 2003)

Row | Structure (SMILES) | melting point
1 | N#Cc1cccc(C2=Nc3ccc(-c4ccsc4)cc3NC(=O)C2)c1 [Example 7, 3-(4-Oxo-7-thiophen-3-yl-4,5-dihydro-3H-benzo[b][1,4]diazepin-2-yl)-benzonitrile] | 238 to 243 °C (dec.)
2 | O=C1CC(c2ccsc2)=Nc2ccc(-c3ccccc3)cc2N1 [Example 29, 8-Phenyl-4-thiophen-3-yl-1,3-dihydro-benzo [b][1,4]diazepin-2-one] | 233 °C (dec.)
3 | N#Cc1cccc(C2=Nc3ccc(-c4ccncc4)cc3NC(=O)C2)c1 [Example 44, 3-(4-Oxo-7-pyridin-4-yl-4,5-dihydro-3H-benzo[b][1,4]diazepin-2-yl)-benzonitrile] | > 200 °C (dec.)
4 | O=C1CC(c2cccc(-c3noc(CCCO)n3)c2)=Nc2ccc(-c3ccc(F)cc3)cc2N1 [Example 168, 8-(4-Fluoro-phenyl)-4-{3-[5-(3-hydroxy-propyl)-[1,2,4]oxadiazol-3-yl]-phenyl}-1,3-dihydro-benzo[b][1,4]diazepin-2-one] | 220 to 222 °C
5 | O=C1CC(c2sccc2Cl)=Nc2ccc(-c3ccc(F)cc3)cc2N1 [Example 91, 4-(3-Chloro-thiophen-2-yl)-8-(4-fluoro-phenyl)-1,3-dihydro-benzo [b][1,4]diazepin-2-one] | 255 to 256 °C
6 | N#Cc1ccc(C2=Nc3ccc(-c4ccccc4F)cc3NC(=O)C2)s1 [Example 100, 5-[7-(2-Fluoro-phenyl)-4-oxo-4,5-dihydro-3H-benzo [b][1,4]diazepin-2-yl]-thiophene-2-carbonitrile] | > 250 °C
7 | N#Cc1ccsc1C1=CC(=O)Nc2cc(-c3ccccc3F)ccc2N1 [Example 84, 2-[7-(2-Fluoro-phenyl)-4-oxo-4,5-dihydro-1H-benzo [b][1,4]diazepin-2-yl]-thiophene-3-carbonitrile] | 238 to 240 °C
8 | CS(=O)(=O)Nc1cccc(C2=Nc3ccc(-c4ccc(F)cc4)cc3NC(=O)C2)c1 [Example 73, N-{3-[7-(4-Fluoro-phenyl)-4-oxo-4,5-dihydro-3H-benzo [b][1,4]diazepin-2-yl]-phenyl}-methanesulfonamide] | 232 to 235 °C
9 | O=C1CC(c2cccc([N+](=O)[O-])c2)=Nc2ccc(-c3ccc(F)cc3)cc2N1 [Example 67, 8-(4-Fluoro-phenyl)-4-(3-nitro-phenyl)-1,3-dihydro-benzo [b][1,4]diazepin-2-one] | 220 to 226 °C (dec.)
10 | N#Cc1cccc(C2=Nc3ccc(C4CC4)cc3NC(=O)C2)c1 [Example 111, 3-(7-Cyclopropyl-4-oxo-4,5-dihydro-3H-benzo [b][1,4]diazepin-2-yl)-benzonitrile] | 204 to 209 °C
11 | O=C1CC(c2cccc(C(F)(F)F)c2)=Nc2ccc(-c3ccc(OCc4ccccc4)nc3)cc2N1 [Example 42, 8-(6-Benzyloxy-pyridin-3-yl)-4-(3-trifluoromethyl-phenyl)-1,3-dihydro-benzo [b][1,4]diazepin-2-one] | 195 °C (dec.)
12 | Cc1nnc(-c2cccc(C3=Nc4ccc(-c5ccc(F)cc5)cc4NC(=O)C3)c2)o1 [Example 165, 8-(4-Fluoro-phenyl)-4-[3-(5-methyl-[1,3,4]oxadiazol-2-yl)-phenyl]-1,3-dihydro-benzo[b][1,4]diazepin-2-one] | 254 to 256 °C (dec.)
13 | N#Cc1cccc(C2=Nc3ccc(-c4cccs4)cc3NC(=O)C2)c1 [Example 24, 3-(4-Oxo-7-thiophen-2-yl-4,5-dihydro-3H-benzo[b][1,4]diazepin-2-yl)-benzonitrile] | > 250 °C (dec.)
14 | CCOC(=O)c1csc(-c2cc(C3=Nc4ccc(-c5ccc(F)cc5)cc4NC(=O)C3)ccn2)n1 [Example 155, 2-{4-[7-(4-Fluoro-phenyl)-4-oxo-4,5-dihydro-3H-benzo[b][1,4]diazepin-2-yl]-pyridin-2-yl}-thiazole-4-carboxylic Acid Ethyl Ester] | 238 to 240 °C (dec.)
15 | N#Cc1cccc(C2=Nc3ccc(-c4cccnc4)cc3NC(=O)C2)c1 [Example 40, 3-(4-Oxo-7-pyridin-3-yl-4,5-dihydro-3H-benzo [b][1,4]diazepin-2-yl)-benzonitrile] | 210 to 214 °C (dec.)
16 | O=C1CC(c2cccs2)=Nc2ccc(-c3ccc(=O)[nH]c3)cc2N1 [Example 41, 8-(6-Oxo-1,6-dihydro-pyridin-3-yl)-4-thiophen-2-yl-1,3-dihydro-benzo [b][1,4]diazepin-2-one] | > 250 °C
17 | Cc1noc(-c2cccc(C3=Nc4ccc(-c5ccc(F)cc5)cc4NC(=O)C3)c2)n1 [Example 169, 8-(4-Fluoro-phenyl)-4-[3-(3-methyl-[1,2,4]oxadiazol-5-yl)-phenyl]-1,3-dihydro-benzo[b][1,4]diazepin-2-one] | 266 to 268 °C
18 | Cc1nc(-c2cccc(C3=Nc4ccc(-c5ccc(F)cc5)cc4NC(=O)C3)c2)sc1C(=O)NCCO [Example 162, 2-{3-[7-(4-Fluoro-phenyl)-4-oxo-4,5-dihydro-3H-benzo [b][1,4]diazepin-2-yl]-phenyl}-4-methyl-thiazole-5-carboxylic Acid (2-hydroxy-ethyl)-amide] | 248 to 251 °C (dec.)
19 | N#Cc1cccc(C2=Nc3ccc(C#CC4=CCOCC4)cc3NC(=O)C2)c1 [Example 138, 3-[7-(3,6-Dihydro-2H-pyran-4-ylethynyl)-4-oxo-4,5-dihydro-3H-benzo [b][1,4]diazepin-2-yl]-benzonitrile] | 238 °C

Now from value to compound:

Row | melting point | Structure (SMILES)
20 | 210 °C (dec.) | O=C1CC(c2cccc(C(F)(F)F)c2)=Nc2ccc(-c3ccccc3)cc2N1 [Example 32, 8-Phenyl-4-(3-trifluoromethyl-phenyl)-1,3-dihydro-benzo [b][1,4]diazepin-2-one]
21 | 208 °C (dec.) | O=C1CC(c2cccc(Cl)c2)=Nc2ccc(-c3ccccc3)cc2N1 [Example 19, 4-(3-Chloro-phenyl)-8-phenyl-1,3-dihydro-benzo[b][1,4]diazepin-2-one]
22 | 246 to 248 °C | O=C1CC(c2cccc(-n3ccnn3)c2)=Nc2ccc(C#Cc3ccc(F)cc3)cc2N1 [Example 115, 8-(4-Fluoro-phenylethynyl)-4-(3-[1,2,3]triazol-1-yl-phenyl)-1,3-dihydro-benzo[b][1,4]diazepin-2-one]
23 | 240 to 246 °C | N#Cc1cccc(C2=Nc3ccc(C#Cc4ccc(F)cc4F)cc3NC(=O)C2)c1 [Example 130, 3-[7-(2,4-Difluoro-phenylethynyl)-4-oxo-4,5-dihydro-3H-benzo [b][1,4]diazepin-2-yl]-benzonitrile]
24 | 169 to 171 °C (dec.) | C[Si](C)(C)C#Cc1cccc(C2=Nc3ccc(C#Cc4ccccc4)cc3NC(=O)C2)c1
25 | 235 to 238 °C (dec.) | N#Cc1cccc(C2=Nc3ccc(C#Cc4cccs4)cc3NC(=O)C2)c1 [Example 50, 3-(4-Oxo-7-thiophen-2-ylethynyl-4,5-dihydro-3H-benzo [b][1,4]diazepin-2-yl)-benzonitrile]
26 | 228 to 229 °C | O=C1CC(c2cccc([N+](=O)[O-])c2)=Nc2ccc(C#Cc3ccccc3)cc2N1 [Example 56, 4-(3-Nitro-phenyl)-8-phenylethynyl-1,3-dihydro-benzo [b][1,4]diazepin-2-one]
27 | 238 to 240 °C (dec.) | N#Cc1cccc(C2=Nc3ccc(-c4ccccc4)cc3NC(=O)C2)c1 [Example 10, 3-(4-Oxo-7-phenyl-4,5-dihydro-3H-benzo[b][1,4]diazepin-2-yl)-benzonitrile]
28 | 227 to 229 °C (dec.) | O=C1CC(c2cccc(I)c2)=Nc2ccc(C#Cc3ccccc3)cc2N1 [Example 11, 4-(3-Iodo-phenyl)-8-phenylethynyl-1,3-dihydro-benzo[b][1,4]diazepin-2-one]
29 | 199 to 202 °C (dec.) | O=C1CC(c2cccc(Cl)c2)=Nc2ccc(C(=O)c3ccccc3)cc2N1 [Example 35, 8-Benzoyl-4-(3-chloro-phenyl)-1,3-dihydro-benzo [b][1,4]diazepin-2-one]
30 | > 250 °C (dec.) | C#Cc1cccc(C2=Nc3ccc(C#Cc4ccccc4)cc3NC(=O)C2)c1 [Example 133, 4-(3-Ethynyl-phenyl)-8-phenylethynyl-1,3-dihydro-benzo[b][1,4]diazepin-2-one]
31 | 219 °C | CC(C)(C)C(=O)N1CC=C(C#Cc2ccc3c(c2)NC(=O)CC(c2cccc(C#N)c2)=N3)CC1 [Example 143, 3-{7-[1-(2,2-Dimethyl-propionyl)-1,2,3,6-tetrahydro-pyridin-4-ylethynyl]-4-oxo-4,5-dihydro-3H-benzo [b][1,4]diazepin-2-yl}-benzonitrile]
32 | 110 °C | N#Cc1cccc(C2=Nc3ccc(C#CC4=CC(=O)CCC4)cc3NC(=O)C2)c1 [Example 144, 3-[4-Oxo-7-(3-oxo-cyclohex-1-enylethynyl)-4,5-dihydro-3H-benzo [b][1,4]diazepin-2-yl]-benzonitrile]
33 | 243 to 244 °C (dec.) | N#Cc1cccc(C2=Nc3ccc(-c4ccccn4)cc3NC(=O)C2)c1 [Example 28, 3-(4-Oxo-7-pyridin-2-yl-4,5-dihydro-3H-benzo [b][1,4]diazepin-2-yl)-benzonitrile]
34 | 239 to 241 °C | N#Cc1cccc(C2=Nc3ccc(C#Cc4ccc(OC(F)(F)F)cc4)cc3NC(=O)C2)c1 [Example 55, 3-[4-Oxo-7-(4-trifluoromethoxy-phenylethynyl)-4,5-dihydro-3H-benzo [b][1,4]diazepin-2-yl]-benzonitrile]
35 | 92 to 95 °C (dec.) | N#Cc1cccc(C2=Nc3ccc(C4=CCN(S(=O)(=O)c5ccccc5)CC4)cc3NC(=O)C2)c1 [Example 45, 3-[7-(1-Benzenesulfonyl-1,2,3,6-tetrahydro-pyridin-4-yl)-4-oxo-4,5-dihydro-3H-benzo [b][1,4]diazepin-2-yl]-benzonitrile]
36 | 242 to 245 °C (dec.) | Cc1ccc(-c2ccc3c(c2)NC(=O)CC(c2cccc(C#N)c2)=N3)cc1 [Example 22, 3-(4-Oxo-7-p-tolyl-4,5-dihydro-3H-benzo[b][1,4]diazepin-2-yl)-benzonitrile]
37 | 134 °C (dec.) | Cc1cn(-c2cccc(C3=Nc4ccc(C#Cc5ccccc5)cc4NC(=O)C3)c2)c(C)n1 [Example 90, 4-[3-(2,4-Dimethyl-imidazol-1-yl)-phenyl]-8-phenylethynyl-1,3-dihydro-benzo[b][1,4]diazepin-2-one]
